Data on 16 compounds can be found in US10329324B2 (viDA Therapeutics Inc., priority 2013, dated 2019).

One data set deals with T1, human Granzyme B (hGzmB) (Homo sapiens, UniProt P10144).
T1 construct: purchased Froelich Lab, Northshore University Health Systems Research Institute, Evanston, Ill., USA
Put plainly: Human Granzyme B enzymatic inhibition assay (fluorogenic, kinetic). The format is biochemical. To be noted: activity codes, Table 7; read-out: IC50 Activity Range. An outline of the steps:
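Human Granzyme B preincubated with compound for 30 min total (5 min shaking, 20 min bench, then reaction temperature). Fluorogenic substrate added and read kinetically, 25 cycles at 1-min intervals. Percent inhibition at one or two concentrations or 8–12-point 3-fold dose response from 20 uM, replicates, with IC50 by non-linear regression.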

Data set [1] in a line: Kinetic solubility determination in PBS. It counts as physicochemical. The note with it: phosphate buffered saline (PBS 1×), 21 °C, pH 7.4, aqueous buffer, kinetic from dmso stock, PBS 1X pH 7.4, 2.0% DMSO, 24 hour incubation at ambient temperature. The protocol:
Kinetic solubility buffer (phosphate buffered saline (PBS, 1×) at pH 7.4) was prepared from PBS (10×) solution, (Fisher Scientific, Pittsburgh, Pa., USA, 10×), by adding PBS (50 mL, 10×) to approximately water (450 mL HPLC grade). The volume of the solution was then adjusted to 500 mL for a total dilution factor of 1:10 and a final PBS concentration of 1×. The pH of the final solution (PBS (1×)) was measured and found to be 7.4.
A DMSO stock solution (typically 10 mM or greater) was used for each compound to be tested. A final DMSO concentration of 2.0% and maximum theoretical compound concentration of typically 200 μM (or greater) was achieved by diluting an aliquot (6 μl) of each stock with kinetic solubility buffer (294 μl, PBS (1×) at pH 7.4) using a liquid handling system (Hamilton STARlet, Hamilton Robotics, Inc., Reno, Nev., USA) and incubated directly in a solubility filter plate (Millipore, Billerica, Mass., USA). Following 24 hour incubation at ambient temperature (20.5-21.7° C.), each sample was vacuum filtered. The filtrate was injected into the chemiluminescent nitrogen detector for quantification (Automated Discovery Workstation, Analiza, Inc., Cleveland, Ohio, USA). Each result was reported both in μM and μg/mL units. Three separate on-board performance indicating standards were assayed in triplicate with each test compound to ensure test results were within the acceptable range.
The equimolar nitrogen response of the detector was calibrated using standards which spanned the dynamic range of the instrument from 0.08 to 4500 μg/ml nitrogen. Each filtrate was quantified with respect to this calibration curve. Each calculated solubility value was corrected for background nitrogen present in the DMSO, and buffer used to prepare each sample. All reported values for samples containing adjacent nitrogen atoms in a ring structure were corrected for the expected non-equimolar response. Each calculated solubility result assumed that each sample was free of nitrogen containing impurities and was stable under the assay conditions. Analyses were performed at Analiza Inc. (Cleveland, Ohio, USA) by published methods (Bhattachar, S. N., et al, J. Pharma. BioMed Anal. 41:152-7 2006).

[2] abbreviates: read-out: Solubility in aqueous PBS Buffer (1X, pH 7.4).
Where [3] appears, read: read-out: Solubility in aqueous PBS Buffer (1X, pH 7.4), ug/mL.

pIC50: −log10 of the molar value. Where a name gives a salt, the structure may show the parent alone. Read-outs that look alike come from different tables or passages of the source.

T1 sequence (P10144 21-247): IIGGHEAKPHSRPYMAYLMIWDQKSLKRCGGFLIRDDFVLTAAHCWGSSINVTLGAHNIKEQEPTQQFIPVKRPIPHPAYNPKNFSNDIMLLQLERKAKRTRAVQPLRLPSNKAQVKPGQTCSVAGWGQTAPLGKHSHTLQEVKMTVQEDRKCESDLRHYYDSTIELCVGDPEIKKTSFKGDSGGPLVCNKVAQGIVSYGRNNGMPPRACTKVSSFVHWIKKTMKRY

For `CC[C@H](C)[C@H](NC(=O)Cc1ccncc1)C(=O)NCC(=O)N1c2ccccc2C[C@H]1C(=O)NCc1nn[nH]n1` [Example A2, (2S)-1-{2-[(2S,3S)-3-Methyl-2-[2-(Pyridin-4-Yl)Acetamido]Pentanamido]Acetyl}-N-(2H-1,2,3,4-Tetrazol-5-Ylmethyl)-2,3-Dihydro-1H-Indole-2-Carboxamide], the negative logarithm of the IC50 (pIC50) on human Granzyme B (hGzmB) is 6.00 to 7.00. Moreover, the solubility at 24 h is more than 150 µM in data set [1] (setting [2]) and more than 80 µg/mL in data set [1] (setting [3]).

Consider `CC[C@H](C)[C@H](NC(=O)Cc1cccnc1)C(=O)NCC(=O)N1c2ccccc2C[C@H]1C(=O)NCc1nn[nH]n1` [Example A3, (2S)-1-{2-[(2S,3S)-3-Methyl-2-[2-(Pyridin-3-Yl)Acetamido]Pentanamido]Acetyl}-N-(2H-1,2,3,4-Tetrazol-5-Ylmethyl)-2,3-Dihydro-1H-Indole-2-Carboxamide], for which, on human Granzyme B (hGzmB), the negative-log IC50 (pIC50) is 6.00 to 7.00. In addition, the results for the solubility at 24 h in data set [1] (setting [2]) and in data set [1] (setting [3]) were 139 µM and 74 µg/mL, respectively.

Regarding `CC[C@H](C)[C@H](NC(=O)Cc1ccccn1)C(=O)NCC(=O)N1c2ccccc2C[C@H]1C(=O)NCc1nn[nH]n1` [Example A4, (2S)-1-{2-[(2S,3S)-3-Methyl-2-[2-(Pyridin-2-Yl)Acetamido]Pentanamido]Acetyl}-N-(2H-1,2,3,4-Tetrazol-5-Ylmethyl)-2,3-Dihydro-1H-Indole-2-Carboxamide], at human Granzyme B (hGzmB), the pIC50 was 6.00 to 7.00. In addition, the results for the solubility at 24 h in data set [1] (setting [2]) and in data set [1] (setting [3]) were more than 150 µM and more than 80 µg/mL, respectively.

For `CC[C@H](C)[C@H](NC(=O)CCN)C(=O)NCC(=O)N1c2ccccc2C[C@H]1C(=O)NCc1nn[nH]n1` [Example A6, (2S)-1-{2-[(2S,3S)-2-(3-Aminopropanamido)-3-Methylpentanamido]Acetyl}-N-(2H-1,2,3,4-Tetrazol-5-Ylmethyl)-2,3-Dihydro-1H-Indole-2-Carboxamide], on human Granzyme B (hGzmB), the pIC50 is 5.00 to 6.00. Besides, the solubility at 24 h in data set [1] (setting [2]) is more than 150 µM; in data set [1] (setting [3]) it was more than 78 µg/mL.

On to `CC[C@H](C)[C@H](NC(=O)CCCN)C(=O)NCC(=O)N1c2ccccc2C[C@H]1C(=O)NCc1nn[nH]n1` [Example A7, (2S)-1-{2-[(2S,3S)-2-(4-Aminobutanamido-3-Methylpentanamido]Acetyl}-N-(2H-1,2,3,4-Tetrazol-5-Ylmethyl)-2,3-Dihydro-1H-Indole-2-Carboxamide Hydrochloride], for which the negative-log IC50 (pIC50) at human Granzyme B (hGzmB) was 5.00 to 6.00. In addition, the solubility at 24 h was found to be 124 µM in data set [1] (setting [2]) and 67 µg/mL in data set [1] (setting [3]).

With `CC[C@H](C)[C@H](NC(=O)Cc1ccc(N)cc1)C(=O)NCC(=O)N1c2ccccc2C[C@H]1C(=O)NCc1nn[nH]n1` [Example A8, (2S)-1-{2-[(2S,3S)-2-[2-(4-Aminophenyl)Acetamido]-3-Methylpentanamido]Acetyl}-N-(2H-1,2,3,4-Tetrazol-5-Ylmethyl)-2,3-Dihydro-1H-Indole-2-Carboxamide Hydrochloride], on human Granzyme B (hGzmB), the pIC50 was 6.00 to 7.00. For the same compound, the figures for the solubility at 24 h in data set [1] (setting [2]) and in data set [1] (setting [3]) were more than 150 µM and more than 88 µg/mL, respectively.

Regarding `CC[C@H](C)[C@H](NC(=O)Cc1csc(N)n1)C(=O)NCC(=O)N1c2ccccc2C[C@H]1C(=O)NCc1nn[nH]n1` [Example A10, (2S)-1-{2-[(2S,3S)-2-[2-(2-Amino-1,3-Thiazol-4-Yl)Acetamido]-3-Methylpentanamido]Acetyl}-N-(2H-1,2,3,4-Tetrazol-5-Ylmethyl)-2,3-Dihydro-1H-Indole-2-Carboxamide Hydrochloride], the pIC50 on human Granzyme B (hGzmB) was 6.00 to 7.00. Also, the solubility at 24 h in data set [1] (setting [2]) was more than 750 µM; in data set [1] (setting [3]) it was more than 443 µg/mL.

On to `O=C(Cc1ccccc1)N[C@H](C(=O)NCC(=O)N1c2ccccc2C[C@H]1C(=O)NCc1nn[nH]n1)C1CCCC1` [Example A12, (2S)-1-{2-[(2S)-2-Cyclopentyl-2-(2-Phenylacetamido)Acetamido]Acetyl}-N-(2H-1,2,3,4-Tetrazol-5-Ylmethyl)-2,3-Dihydro-1H-Indole-2-Carboxamide], for which the pIC50 at human Granzyme B (hGzmB) was 6.00 to 7.00. For the same compound, the results for the solubility at 24 h in data set [1] (setting [2]) and in data set [1] (setting [3]) were 594 µM and 323 µg/mL, respectively.

Take `CC[C@H](C)[C@H](NC(=O)CCCC(=O)O)C(=O)NCC(=O)N1c2ccccc2C[C@H]1C(=O)NCc1nn[nH]n1` [Example A14, 4-{[(1S,2S)-2-Methyl-1-({2-Oxo-2-[(2S)-2-[(2H-1,2,3,4-Tetrazol-5-Ylmethyl)Carbamoyl]-2,3-Dihydro-1H-Indol-1-Yl]Ethyl}Carbamoyl)Butyl]Carbamoyl}Butanoic Acid]: the pIC50 on human Granzyme B (hGzmB) was more than 7.00. Moreover, the solubility at 24 h amounted to 107 µM in data set [1] (setting [2]) and 57 µg/mL in data set [1] (setting [3]).

As to `CC[C@H](C)[C@H](NC(C)=O)C(=O)NCC(=O)N1c2ccccc2C[C@H]1C(=O)NCc1nn[nH]n1` [Example A15, (2S)-1-{2-[(2S,3S)-2-Acetamido-3-Methylpentanamido]Acetyl}-N-(2H-1,2,3,4-Tetrazol-5-Ylmethyl)-2,3-Dihydro-1H-Indole-2-Carboxamide], the negative logarithm of the IC50 (pIC50) at human Granzyme B (hGzmB) was 6.00 to 7.00. For the same compound, the solubility at 24 h in data set [1] (setting [2]) came to 565 µM; in data set [1] (setting [3]), 258 µg/mL.

For the compound `CC[C@H](C)[C@H](NC(=O)CCC(=O)O)C(=O)NCC(=O)N1c2ccccc2C[C@H]1C(=O)NCc1c[nH]nn1` [Example A16, 3-{[(1S,2S)-2-Methyl-1-({2-Oxo-2-[(2S)-2-[(1H-1,2,3-Triazol-4-Ylmethyl)Carbamoyl]-2,3-Dihydro-1H-Indol-1-Yl]Ethyl}Carbamoyl)Butyl]Carbamoyl}Propanoic Acid], the negative-log IC50 (pIC50) at human Granzyme B (hGzmB) was more than 7.00. For the same compound, the solubility at 24 h is more than 750 µM in data set [1] (setting [2]) and more than 385 µg/mL in data set [1] (setting [3]).

In the case of `CC[C@H](C)[C@H](NC(=O)CC(C)(C)CC(=O)O)C(=O)NCC(=O)N1c2ccccc2C[C@H]1C(=O)NCc1nn[nH]n1` [Example A18, 3,3-Dimethyl-4-{[(1S,2S)-2-Methyl-1-({2-Oxo-2-[(2S)-2-[(2H-1,2,3,4-Tetrazol-5-Ylmethyl)Carbamoyl]-2,3-Dihydro-1H-Indol-1-Yl]Ethyl}Carbamoyl)Butyl]Carbamoyl}Butanoic Acid], the pIC50 on human Granzyme B (hGzmB) is more than 7.00. Also, the solubility at 24 h was 679 µM in data set [1] (setting [2]) and 447 µg/mL in data set [1] (setting [3]).

For `CC[C@H](C)[C@H](NC(=O)CC1(CC(=O)O)CCCC1)C(=O)NCC(=O)N1c2ccccc2C[C@H]1C(=O)NCc1nn[nH]n1` [Example A19, 2-[1-({[(1S,2S)-2-Methyl-1-({2-Oxo-2-[(2S)-2-[(2H-1,2,3,4-Tetrazol-5-Ylmethyl)Carbamoyl]-2,3-Dihydro-1H-Indol-1-Yl]Ethyl}Carbamoyl)Butyl]Carbamoyl}Methyl)Cyclopentyl]Acetic Acid], the pIC50 at human Granzyme B (hGzmB) is more than 7.00. Moreover, the solubility at 24 h in data set [1] (setting [2]) was 672 µM; in data set [1] (setting [3]), 391 µg/mL.

For `CC[C@H](C)[C@H](NC(=O)/C=C\C(=O)O)C(=O)NCC(=O)N1c2ccccc2C[C@H]1C(=O)NCc1nn[nH]n1` [Example A24, (2Z)-3-{[(1S,2S)-2-Methyl-1-({2-Oxo-2-[(2S)-2-[(2H-1,2,3,4-Tetrazol-5-Ylmethyl)Carbamoyl]-2,3-Dihydro-1H-Indol-1-Yl]Ethyl}Carbamoyl)Butyl]Carbamoyl}Prop-2-Enoic Acid], the pIC50 at human Granzyme B (hGzmB) was more than 7.00. The solubility at 24 h in data set [1] (setting [2]) stood at 719 µM; in data set [1] (setting [3]) it was 441 µg/mL.

`CC[C@H](C)[C@H](NC(=O)c1ccccc1C(=O)O)C(=O)NCC(=O)N1c2ccccc2C[C@H]1C(=O)NCc1nn[nH]n1` [Example A25, 2-{[(1S,2S)-2-Methyl-1-({2-Oxo-2-[(2S)-2-[(2H-1,2,3,4-Tetrazol-5-Ylmethyl)Carbamoyl]-2,3-Dihydro-1H-Indol-1-Yl]Ethyl}Carbamoyl)Butyl]Carbamoyl}Benzoic Acid]: the pIC50 on human Granzyme B (hGzmB) is more than 7.00. The solubility at 24 h stood at 696 µM in data set [1] (setting [2]) and 462 µg/mL in data set [1] (setting [3]).

Consider `CC[C@H](C)[C@H](NC(=O)[C@H](O)[C@@H](O)C(=O)O)C(=O)NCC(=O)N1c2ccccc2C[C@H]1C(=O)NCc1nn[nH]n1` [Example A32, (2R,3R)-2,3-Dihydroxy-3-{[(1S,2S)-2-Methyl-1-({2-Oxo-2-[(2S)-2-[(2H-1,2,3,4-Tetrazol-5-Ylmethyl)Carbamoyl]-2,3-Dihydro-1H-Indol-1-Yl]Ethyl}Carbamoyl)Butyl]Carbamoyl}Propanoic Acid], for which the negative-log IC50 (pIC50) on human Granzyme B (hGzmB) is more than 7.00. Also, the values for the solubility at 24 h in data set [1] (setting [2]) and in data set [1] (setting [3]) were more than 750 µM and more than 410 µg/mL, respectively.
